Columns and labels:
HeLa cells [1] = experiment: Extracellular acidification rates (ECAR), Seahorse XF24 flux analyser; type: cell-based, human; settings: 1 µM, both siCtrl- and siOPA1-transfected cells
From the text: (§1) The inventors assessed oxygen consumption rates (OCR), a direct measure of oxidative phosphorylation activity, and extracellular acidification rates (ECAR), representative of glycolysis, since it accounts for approximately 80% of acidification (Wu et al., 2007, Xie et al., 2009), using the Seahorse XF24 flux analyser (Seahorse Bioscience Inc, North Billerica, MA, USA). Basal respiration was 38% lower in siOPA1-transfected HeLa cells than siCtrl-treated cells (Figure 1). Furthermore, ATP-linked respiration measured in the presence of oligomycin, which inhibits ATP synthase, was reduced by 40%. The maximal OCR measured in the presence of the protonophore FCCP, which uncouples oxidation and phosphorylation, was reduced by 58%. […] Indeed, citrate synthase activity and quantity and HSP60, VDAC, and TOM20 levels were unchanged (Figures 18 and 19).
Oxygen consumption rates (OCR) and extracellular acidification rates (ECAR) were measured using the XF24 Extracellular Flux Analyser (Seahorse Bioscience, North Billerica, MA). HeLa cells (15.103) transfected with siCtrl or siOPA1 were plated on XF24 microplates three days before OCR measurements. Dual-analyte sensor cartridges were soaked in XF Calibrant Solution (Seahorse Biosciences) in 24-well cell-culture microplates overnight at 37°C to hydrate. […]

HeLa cells [2] = experiment: Oxygen consumption rates (OCR), Seahorse XF24 flux analyser; type: cell-based, human; settings: for effect on OCR / mitochondrial respiration: rotenone 1 µM plus antimycin A 1 µM, siOPA1- and siCtrl-transfected cells; for oxygen consumption due to mitochondrial respiration: shown by rotenone plus antimycin, both siOPA1- and siCtrl-transfected cells
From the text: as §1
Oxygen consumption rates (OCR) and extracellular acidification rates (ECAR) were measured using the XF24 Extracellular Flux Analyser (Seahorse Bioscience, North Billerica, MA). HeLa cells (15.103) transfected with siCtrl or siOPA1 were plated on XF24 microplates three days before OCR measurements. Dual-analyte sensor cartridges were soaked in XF Calibrant Solution (Seahorse Biosciences) in 24-well cell-culture microplates overnight at 37°C to hydrate. Approximately one hour prior to experimentation, injection ports on the sensor cartridge were filled with oligomycin (1 µM), Carbonyl cyanide 4-(trifluoromethoxy) phenylhydrazone (FCCP) (1 µM), and rotenone (1 µM) plus antimycin A (1 µM). Plates were then loaded into the XF24 instrument for calibration. For measuring oxygen consumption, the DMEM growth media of HeLa cells was replaced by DMEM supplemented with NaCl (143 mM), Phenol Red (3 mg/ml), glucose (10 mM), glutamine (2 mM), and pyruvate (2 mM) at pH 7.4, and the plates maintained at 37°C 1 h prior to experimentation. Plates were then loaded into the Seahorse XF24 analyser following the manufacturer's instructions.

Row | Molecule | effect of oligomycin injection on ECAR (HeLa cells [1]) | effect on OCR / mitochondrial respiration (HeLa cells [2]) | effect on OCR / mitochondrial respiration (HeLa cells [2]; listed as Rotenone) | oxygen consumption due to mitochondrial respiration (HeLa cells [2]) | effect on OCR / mitochondrial respiration (HeLa cells [2]; listed as antimycin)
1 | CC[C@H]1/C=C/C=C/C[C@@H](C)[C@H](O)[C@@](C)(O)C(=O)[C@@H](C)[C@H](O)[C@@H](C)C(=O)[C@@H](C)[C@H](O)[C@@H](C)/C=C/C(=O)O[C@@H]2[C@H](C)[C@H](CC1)O[C@]1(CC[C@H](C)[C@H](C[C@@H](C)O)O1)[C@H]2C [oligomycin] | increased |  |  |  | 
2 | C=C(C)[C@H]1Cc2c(ccc3c2O[C@@H]2COc4cc(OC)c(OC)cc4[C@@H]2C3=O)O1 [rotenone] |  | inhibited mitochondrial respiration | considerably decreased | more than 95% | 
3 | antimycin A |  | inhibited mitochondrial respiration |  | more than 95% | considerably decreased

— patent EP4439067A1, “METHOD FOR IDENTIFYING REACTIVE OXYGEN SPECIES” (Centre National de la Recherche Scientifique, priority 2023, dated 2024)
